Patent US20070299103A1, “[1,2,4]Triazolo[4,3-A]Pyridine Derivatives for the Treatment of Hyperproliferative Diseases” (priority 2004, published 2007)

How the values were obtained:
Tumors = details: patients; cited from earlier work
[1] = in vivo; cited from earlier work
human MEK1 = human MEK1 (Homo sapiens, UniProt Q02750); experiment: Inhibition of human MEK1 kinase activity, TR-FRET assay; type: biochemical; details: 100 nM MEK1, 15 μM ATP, 300 nM ERK2, two hours; read-out: Inhibition of MEK, Activity (IC50)
Sequence of human MEK1 (Q02750 whole entry): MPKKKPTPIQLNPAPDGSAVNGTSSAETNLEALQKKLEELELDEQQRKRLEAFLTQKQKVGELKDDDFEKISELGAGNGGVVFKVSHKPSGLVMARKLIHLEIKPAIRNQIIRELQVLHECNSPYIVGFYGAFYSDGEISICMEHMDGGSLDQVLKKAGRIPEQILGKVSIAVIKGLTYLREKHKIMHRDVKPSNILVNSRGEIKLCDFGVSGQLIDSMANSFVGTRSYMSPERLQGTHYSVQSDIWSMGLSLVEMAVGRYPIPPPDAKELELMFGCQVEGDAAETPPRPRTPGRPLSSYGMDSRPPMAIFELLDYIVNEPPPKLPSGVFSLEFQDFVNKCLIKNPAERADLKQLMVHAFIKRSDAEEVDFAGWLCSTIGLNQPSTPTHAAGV
Procedure: The activity of the compounds of the present invitation may be determined by the following procedure: Inhibition of human MEK1 kinase activity was monitored with a homogenous, fluorescence based assay. The assay uses time resolved fluorescence resonance energy transfer to probe for phosphorylation of ERK1 by MEK1. The assay is carried out in low volume 96 well microtiterplates. In a total volume of 15 μl, compounds are incubated with 100 nM MEK1, 15 μM ATP, 300 nM ERK2 employing a buffer containing 20 mM TRIS/HCl, 10 mM MgCl2, 100 μM NaVO4, 1 mM DTT, and 0.005% Tween 20 (pH 7.4). After two hours, 5 nM Europium-anti-PY20 (Perkin Elmer) and 50 nM Anti-GST-Allophycocyanin (CisBio) in buffer containing 50 mM EDTA and 0.05% BSA are added and the reaction incubated for one hour in the dark. Time-resolved fluorescence is measured using a LJL-Analyst (Molecular Devices) with an excitation wavelength of 340 nm and an emission wavelength of 665 nm. The final concentration of DMSO is 2%. To assess the inhibitory potential of the compounds, IC50-values were determined.
The following compounds exemplify such activity with “+” meaning 1 μM<IC50≦10 μM and “++” IC50≦1 μM

Murine colon C26 cells = experiment: Tumor cell proliferation assay (ATP Lite), C26; type: cell-based; details: 4 days incubation
Procedure: (§1) Murine colon C26, human melanoma A375 and human melanoma Mel5 cells were plated in 96 well Corning white plates (1500 cells/well for C26, and 2000 cells/well for A375, and MiaPaCa-2) and cultured overnight at 37° C. in 5% CO2. Inhibitors were serially diluted in 100% DMSO and subsequently added to cells to reach a final concentration of 0.25% DMSO. The cells were incubated for 4 days in the presence of test compounds in cell growth media (DMEM with 10% fetal bovine serum, 2 mM glutamine for C26, and MiaPaCa-2, and RPMI with 10% fetal bovine serum, 2 mM glutamine for A375). Cell proliferation was quantitated using the ATP lite cell proliferation kit (Packard). Columns 2-4 show the concentration of compounds required to induce 50% cell death (IC50 in μM) of human endometriotic cells. With “+” meaning 100 μM<IC50≦10 μM and “++” IC50≦1 μM and “n.d.” means not determined.

[2] = test system: human melanoma Mel5 cells; experiment: Tumor cell proliferation assay (ATP Lite), Mel5; type: cell-based; details: 4 days incubation
Procedure: as §1

[3] = test system: human melanoma A375 cells; experiment: Tumor cell proliferation assay (ATP Lite), A375; type: cell-based; details: 4 days incubation
Procedure: as §1

[4] = Microsomal stability assay, human liver microsomes; type: in vitro ADME; details: pooled human liver microsomes, pH 7.4; 3 μM compound, 0.5 mg/ml human liver microsomes, 37° C., 2 mM NADPH; read-out: HLM t½
Procedure: (§2) Compounds were tested on their stability in human, rat and mouse liver microsomal preparations (HLM, RLM and MLM respectively). At a final concentration of 3 μM, compounds were incubated at 37° C. with 0.5 mg/ml human, rat or mouse liver microsomes in a buffer containing 50 mM phosphate, pH 7.4 and 2 mM NADPH. Pooled human liver microsomes or pooled male rat liver microsomes (Sprague Dawley) were obtained from NatuTec (Frankfurt, Germany). Incubations without NADPH served as negative controls. Reactions were stopped after 0, 15, 30, 45 or 60 min by the addition of acetonitrile and microsomes were pelleted by centrifugation (10 min at 6200×g). Supernatants were analyzed by HPLC regarding the concentration of mother compound. Finally, the half-life of compounds in the regarding microsomal preparation was calculated.

[5] = Microsomal stability assay, rat liver microsomes; type: in vitro ADME; details: male, Sprague Dawley, pooled rat liver microsomes, pH 7.4; 3 μM compound, 0.5 mg/ml rat liver microsomes, 37° C., 2 mM NADPH; read-out: RLM t½
Procedure: as §2

Caco-2 cells = experiment: Caco-2 permeability assay; type: in vitro ADME; details: 10 μM, pH 7.4, 120 minutes
Procedure: Caco-2 cells obtained from the ATCC at passage number 27 are used. Cells (passage number 40-60) were seeded on to Millipore Multiscreen Caco-2 plates or Falcon HTS inserts at 1×10^5 cells/cm2. Cells were cultured for 20 days in DMEM and media was changed every two or three days. On day 20 the permeability study was performed.
Permeability was studied by applying compound to the apical surface of cell monolayers and measuring compound permeation into the basolateral compartment. The experiment was also performed in the reverse direction (B-A) to investigate active transport. […]
HBSS was then removed from the apical compartment and replaced with test compound dosing solutions. […] Test compound permeability was assessed in duplicate. […]
The integrity of the monolayers throughout the experiment is checked by monitoring lucifer yellow permeation using fluorimetric analysis. […] Test and control compounds were quantified by LC-MS/MS cassette analysis using a 5-point calibration with appropriate dilution of the samples. […]
The permeability coefficient for each compound (Papp) was calculated from the following equation: Papp=[dQ/dt]/[C0×A] […]
Wherein “+” means a caco A-B and caco B-A value of 1-10 and “++” means a caco A-B and caco B-A value of 11-100 and “n.d.” means not determined.

Row | Structure (SMILES) | efficacy in clinical phase II trials (Tumors) | bioavailability [1] | IC50 (human MEK1) [nM] | C26 cells IC50 (Murine colon C26 cells) | Mel5 cells IC50 [2] | A375 cells IC50 [3] | half-life at 3 μM [4] [h] | half-life at 3 μM [5] [h] | Caco A-B (Caco-2 cells; apical to basolateral) | Caco B-A (Caco-2 cells; basolateral to apical)
1 | O=C(NOCC1CC1)c1ccc(F)c(F)c1Nc1ccc(I)cc1Cl [PD-184352] | lacking efficacy | low bioavailability | – | – | – | – | – | – | – | –
2 | Cc1cc(I)ccc1Nc1cc2nnc(C)n2cc1C(=O)NOC[C@H](O)CO [Compound 3c, 7-[(4-Iodo-2-methylphenyl)amino]-N-([(2R)-2,3-dihydroxypropyl]oxy)-3-methyl[1,2,4]triazolo[4,3-a]pyridine-6-carboxamide] | – | – | ≤ 1000 | – | – | – | – | – | – | –
3 | Cc1cc(Br)ccc1Nc1cc2nnc(C)n2cc1C(=O)NO [Compound 3a, 7-[(4-Bromo-2-methylphenyl)amino]-N-hydroxy-3-methyl[1,2Z4]triazolo[4,3-a]pyridine-6-carboxamide] | – | – | ≤ 1000 | + (100 μM<IC50≦10 μM) | + (100 μM<IC50≦10 μM) | + (100 μM<IC50≦10 μM) | – | – | – | –
4 | Cc1cc(Br)ccc1Nc1cc2nnc(C)n2cc1C(=O)NOC[C@@H](O)CO [Compound 3b, 7-[(4-Bromo-2-methylphenyl)amino]-N-([(2S)-2,3-dihydroxypropyl]oxy)-3-methyl[1,2,4]triazolo[4,3-a]pyridine-6-carboxamide] | – | – | 1000 to 10000 | + (100 μM<IC50≦10 μM) | + (100 μM<IC50≦10 μM) | + (100 μM<IC50≦10 μM) | > 2 | > 2 | + (a caco A-B and caco B-A value of 1-10) | + (a caco A-B and caco B-A value of 1-10)
5 | Cc1cc(Br)ccc1Nc1cc2nnc(C)n2cc1C(=O)O [Compound 2a, 7-[(4-Bromo-2-methylphenyl)amino]-3-methyl[1,2,4]triazolo[4,3-a]pyridine-6-carboxylic acid] | – | – | 1000 to 10000 | + (100 μM<IC50≦10 μM) | + (100 μM<IC50≦10 μM) | + (100 μM<IC50≦10 μM) | – | – | – | –
